According to article PMC2701622 (Journal of immunology (Baltimore, Md. : 1950), 2009):
No end group written: not given here.

Target: HLA-B*2705 (Homo sapiens, UniProt P01889, D138H/D201E/E176V/E204Q/G107R/H137Y/K202T/N104T/N87E/Q56L/Q94K/R106L/R155S/R180L/S101D/S121N/S48T/Y140D/Y33H/Y91C)
Experiment: biochemical
Assay type: binding

Row | Molecule | IC50
1 | RRYNIIPVL | 7.9 nM
2 | NRFSVAYML [reference compound] | 9.8 nM
3 | RRISGVDRY [reference compound] | 21 nM
4 | TRYPTILQL | 97 nM
5 | ARKLLLDNL [reference compound] | 74 nM
6 | RRAIRGEQL [Vif123–131RL9] | 28 nM
7 | LRQGYRPVF [Env717–725LF9] | 52 nM
8 | RRHRILDIYL [Nef137–146RL10] | 1.8 nM
9 | RRIRQGLEL [Env868–876RL9] | 13 nM
10 | KRLRLIHLL [Rev12–20KL9] | 1.1 nM
11 | RRLTARGLL [Nef246–254RL9] | 9.9 nM
12 | SRLWPKIQGL | 17 nM
13 | EREQTLNQL [reference compound] | 2690 nM
14 | RRSRPSGDL [Nef8–16RL9] | 351 nM
15 | YRRWIQLGL [Gag263–271YL9] | 2.7 nM
16 | SRTPYHVNL | 22 nM
17 | KRQQELLRL [Env573–581KL9] | 69 nM
18 | SRYDPSISF | 254 nM
19 | RRSPFLQVF | 14 nM

Row | Molecule | IC50
20 | RRDNRRGL [Vif172–179RL8] | 175 nM
21 | IRILQRALF [Vpr62–70IF9] | 14 nM
22 | ARLFGIRAK [reference compound] | 133 nM
23 | KRLAETLAL [KRLAETLAL, reference compound] | 165 nM
24 | CC(C)C[C@H](NC(=O)[C@H](CCCNC(=N)N)NC(=O)[C@H](CC(C)C)NC(=O)[C@H](C)NC(=O)[C@H](CCC(=O)O)NC(=O)[C@@H]1CCCN1C(=O)[C@H](Cc1ccccc1)NC(=O)[C@H](CCCNC(=N)N)NC(=O)[C@@H](N)CO)C(=O)O [reference compound] | 12 nM
25 | RRQDILDLWI [reference compound] | 99 nM
26 | ARAALQELL | 137 nM
27 | RRRWQQLL [Rev44–51RL8] | 12 nM
28 | NRAKQVIKL [reference compound] | 324 nM
29 | DRLALLANL [reference compound] | 181 nM
30 | SRHHAFCFR [reference compound] | 42 nM
31 | RRPPLLPLLL | 100 nM
32 | RRSKEITVR [reference compound] | 5.5 nM
33 | SRLEILNVL | 80 nM
34 | CC(C)C[C@H](NC(=O)[C@H](CCC(=O)O)NC(=O)[C@@H](NC(=O)[C@H](CO)NC(=O)[C@H](CCCCN)NC(=O)[C@H](CCC(N)=O)NC(=O)[C@H](Cc1ccc(O)cc1)NC(=O)[C@H](CCCNC(=N)N)NC(=O)[C@@H](N)CCCNC(=N)N)[C@@H](C)O)C(=O)O [reference compound] | 6.2 nM
35 | MRDHTITLL [reference compound] | 52 nM
36 | SRQFGFIVL | 128 nM
37 | KRGVFVLGF [Env524–532KF9] | 13 nM
